Target: CX3CR1 (Homo sapiens (Human), UniProt P49238)
Assay: hCX3CR1 [3H]-AZD8797 competitive binding assay (filter)
Conditions: CHO-hCX3CR1 membranes, 2 nM [3H]-AZD8797
Protocol: hCX3CR1 [^3H]-AZD8797 Competitive Binding Assay (Filter)
CHO-hCX3CR1 membranes (9 μg per well) together with 2 nM [^3H]-AZD8797 and different concentrations of competitor compound were incubated in 25 mM HEPES (pH 7.4), 10 mM MgCl2, 1 mM CaCl2) and 0.5% BSA in a Corning polystyrene flat-bottom 96-well plate. The plate was incubated for 2 h at room temperature before free radioligand was separated from bound by vacuum filtration on to a Multiscreen HTS+HiFlow FB (Millipore) filter plate, using a Biomek FX (Beckman Coulter). The filter plate was washed in ice-cold 25 mM HEPES (pH 7.4), 5 mM MgCl2, 1 mM CaCl2) and 500 mM NaCl and dried at 50° C. for 1 h. Scintillation cocktail, Optiphase Supermix (PerkinElmer) was added to each well and the radioactivity was measured using a MicroBeta Trilux reader (PerkinElmer). The DMSO concentration was held constant at 1%.

Chain of CX3CR1 (P49238 whole entry): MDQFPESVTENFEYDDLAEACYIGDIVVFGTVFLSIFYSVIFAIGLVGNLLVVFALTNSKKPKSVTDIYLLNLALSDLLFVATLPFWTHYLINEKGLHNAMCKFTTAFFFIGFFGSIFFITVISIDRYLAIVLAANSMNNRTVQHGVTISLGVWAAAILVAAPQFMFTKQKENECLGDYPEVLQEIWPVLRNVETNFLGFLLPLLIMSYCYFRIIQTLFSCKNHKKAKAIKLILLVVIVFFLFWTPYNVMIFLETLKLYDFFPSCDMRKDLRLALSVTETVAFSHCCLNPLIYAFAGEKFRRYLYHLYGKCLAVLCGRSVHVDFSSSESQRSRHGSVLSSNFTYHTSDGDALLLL

| IC50 [nM] | Compound |
| --- | --- |
| 2780 | CCOc1ccc([C@@H](C)Cc2nc(N[C@@H](CO)CC(C)C)nc(NS(C)(=O)=O)n2)cn1 (single isomer, unassigned) [Example 28, N-(4-((S*)-2-(6-Ethoxypyridin-3-yl)propyl)-6-(((R)-1-hydroxy-4-methylpentan-2-yl)amino)-1,3,5-triazin-2-yl)methanesulfonamide] |
| 1960 | CC(C)C[C@H](CO)Nc1nc(CC(C)c2ccc(C(=O)N3CCOCC3)cc2)nc(NS(C)(=O)=O)n1 (stereo partly drawn) [Example 156, N-(4-(((R)-1-Hydroxy-4-methylpentan-2-yl)amino)-6-(2-(4-(morpholine-4-carbonyl)phenyl)propyl)-1,3,5-triazin-2-yl)methanesulfonamide] |
| 24 | Cc1c2ccc(C(C)Cc3nc(N[C@@H](CO)CC(C)C)nc(NS(C)(=O)=O)n3)cc2nn1C (stereo partly drawn) [Example 106, N-(4-(2-(2,3-Dimethyl-2H-indazol-6-yl)propyl)-6-(((R)-1-hydroxy-4-methylpentan-2-yl)amino)-1,3,5-triazin-2-yl)methanesulfonamide] |
| 73 | COc1ccc([C@@H](C)Cc2nc(N[C@@H](CO)CC(C)C)nc(NS(C)(=O)=O)n2)c(F)n1 (single isomer, unassigned) [Example 86, N-(4-((S*)-2-(2-Fluoro-6-methoxypyridin-3-yl)propyl)-6-(((R)-1-hydroxy-4-methylpentan-2-yl)amino)-1,3,5-triazin-2-yl)methanesulfonamide] |
| 9110 | CC(C)C[C@H](CO)Nc1nc(C[C@H](C)c2c(F)cc(Cl)cc2F)nc(NS(C)(=O)=O)n1 (single isomer, unassigned) [Example 43, N-(4-((S*)-2-(4-Chloro-2,6-difluorophenyl)propyl)-6-(((R)-1-hydroxy-4-methylpentan-2-yl)amino)-1,3,5-triazin-2-yl)methanesulfonamide] |
| 76 | CC(C)C[C@H](CO)Nc1nc(CC(C)c2ccc3ncoc3c2)nc(NS(C)(=O)=O)n1 (stereo partly drawn) [Example 61, N-(4-(2-(Benzo[d]oxazol-6-yl)propyl)-6-(((R)-1-hydroxy-4-methylpentan-2-yl)amino)-1,3,5-triazin-2-yl)methanesulfonamide] |
| 203 | CC(C)C[C@H](CO)Nc1nc(CC(C)c2cnc3ccccc3c2)nc(NS(C)(=O)=O)n1 (stereo partly drawn) [Example 134, N-(4-(((R)-1-Hydroxy-4-methylpentan-2-yl)amino)-6-(2-(quinolin-3-yl)propyl)-1,3,5-triazin-2-yl)methanesulfonamide] |
| 1250 | CC(C)C[C@H](CO)Nc1nc(CC(C)c2ccc(F)c(C#N)c2)nc(NS(C)(=O)=O)n1 (some centres unmarked) [Example 161] |
| 726 | COc1cccc(C(C)Cc2nc(N[C@@H](CO)CC(C)C)nc(NS(C)(=O)=O)n2)n1 (stereo partly drawn) [Example 166, N-(4-(((R)-1-Hydroxy-4-methylpentan-2-yl)amino)-6-(2-(6-methoxypyridin-2-yl)propyl)-1,3,5-triazin-2-yl)methanesulfonamide] |
| 22 | CC(C)C[C@H](CO)Nc1nc(C[C@@H](C)c2c(F)cccc2F)nc(NS(C)(=O)=O)n1 (single isomer, unassigned) [Example 78, N-(4-((R*)-2-(2,6-Difluorophenyl)propyl)-6-(((R)-1-hydroxy-4-methylpentan-2-yl)amino)-1,3,5-triazin-2-yl)methanesulfonamide] |
| 126 | CC(C)C[C@H](CO)Nc1nc(CC(C)c2ccc3ncn(C)c(=O)c3c2)nc(NS(C)(=O)=O)n1 (stereo partly drawn) [Example 124, N-(4-(((R)-1-Hydroxy-4-methylpentan-2-yl)amino)-6-(2-(3-methyl-4-oxo-3,4-dihydroquinazolin-6-yl)propyl)-1,3,5-triazin-2-yl)methanesulfonamide] |
| 391 | Cc1cc(C(C)Cc2nc(N[C@@H](CO)CC(C)C)nc(NS(C)(=O)=O)n2)ccc1F (stereo partly drawn) [Example 111, N-(4-(2-(4-Fluoro-3-methylphenyl)propyl)-6-(((R)-1-hydroxy-4-methylpentan-2-yl)amino)-1,3,5-triazin-2-yl)methanesulfonamide] |
| 3250 | CC(C)C[C@H](CO)Nc1nc(C[C@H](C)c2c(F)cccc2F)nc(NS(C)(=O)=O)n1 (single isomer, unassigned) [Example 77, N-(4-((S*)-2-(2,6-Difluorophenyl)propyl)-6-(((R)-1-hydroxy-4-methylpentan-2-yl)amino)-1,3,5-triazin-2-yl)methanesulfonamide] |
| 685 | CC(C)C[C@H](CO)Nc1nc(C[C@@H](C)c2cc(F)c(Cl)cc2F)nc(NS(C)(=O)=O)n1 (single isomer, unassigned) [Example 38, N-(4-((R*)-2-(4-Chloro-2,5-difluorophenyl)propyl)-6-(((R)-1-hydroxy-4-methylpentan-2-yl)amino)-1,3,5-triazin-2-yl)methanesulfonamide] |
| 241 | CC(C)C[C@H](CO)Nc1nc(CC(C)c2ccc3c(c2)CC(=O)N(C)C3)nc(NS(C)(=O)=O)n1 (stereo partly drawn) [Example 128, N-(4-(((R)-1-Hydroxy-4-methylpentan-2-yl)amino)-6-(2-(2-methyl-3-oxo-1,2,3,4-tetrahydroisoquinolin-6-yl)propyl)-1,3,5-triazin-2-yl)methanesulfonamide] |
| 169 | CC(C)C[C@H](CO)Nc1nc(CC(C)c2ccc3c(c2)OCC(=O)N3C)nc(NS(C)(=O)=O)n1 (stereo partly drawn) [Example 129, N-(4-(((R)-1-Hydroxy-4-methylpentan-2-yl)amino)-6-(2-(4-methyl-3-oxo-3,4-dihydro-2H-benzo[b][1,4]oxazin-7-yl)propyl)-1,3,5-triazin-2-yl)methanesulfonamide] |
| 105 | CC(C)C[C@H](CO)Nc1nc(CC(C)c2cccc(F)c2)nc(NS(C)(=O)=O)n1 (stereo partly drawn) [Example 58, N-(4-(2-(3-Fluorophenyl)propyl)-6-(((R)-1-hydroxy-4-methylpentan-2-yl)amino)-1,3,5-triazin-2-yl)methanesulfonamide] |
| 111 | CC(C)C[C@H](CO)Nc1nc(CC(C)c2ccc(C3COC3)cc2)nc(NS(C)(=O)=O)n1 (stereo partly drawn) [Example 57, N-(4-(((R)-1-Hydroxy-4-methylpentan-2-yl)amino)-6-(2-(4-(oxetan-3-yl)phenyl)propyl)-1,3,5-triazin-2-yl)methanesulfonamide] |
| 120 | CC(C)C[C@H](CO)Nc1nc(CC(C)c2ccc(F)c(CO)c2)nc(NS(C)(=O)=O)n1 (stereo partly drawn) [Example 122, N-(4-(2-(4-Fluoro-3-(hydroxymethyl)phenyl)propyl)-6-(((R)-1-hydroxy-4-methylpentan-2-yl)amino)-1,3,5-triazin-2-yl)methanesulfonamide] |
| 140 | CC(C)C[C@H](CO)Nc1nc(CC(C)c2ccc3ocnc3c2)nc(NS(C)(=O)=O)n1 (stereo partly drawn) [Example 62, N-(4-(2-(Benzo[d]oxazol-5-yl)propyl)-6-(((R)-1-hydroxy-4-methylpentan-2-yl)amino)-1,3,5-triazin-2-yl)methanesulfonamide] |
| 830 | COCc1ccc(C(C)Cc2nc(N[C@@H](CO)CC(C)C)nc(NS(C)(=O)=O)n2)cc1 (stereo partly drawn) [Example 69, N-(4-(((R)-1-Hydroxy-4-methylpentan-2-yl)amino)-6-(2-(4-(methoxymethyl)phenyl)propyl)-1,3,5-triazin-2-yl)methanesulfonamide] |
| 5230 | CC(C)C[C@H](CO)Nc1nc(CC(C)c2cccc3c2NC(=O)C3)nc(NS(C)(=O)=O)n1 (stereo partly drawn) [Example 163, N-(4-(((R)-1-Hydroxy-4-methylpentan-2-yl)amino)-6-(2-(2-oxoindolin-7-yl)propyl)-1,3,5-triazin-2-yl)methanesulfonamide] |
| 26 | CC(C)C[C@H](CO)Nc1nc(CC(C)c2ccc(CO)c(F)c2)nc(NS(C)(=O)=O)n1 (stereo partly drawn) [Example 133, N-(4-(2-(3-Fluoro-4-(hydroxymethyl)phenyl)propyl)-6-(((R)-1-hydroxy-4-methylpentan-2-yl)amino)-1,3,5-triazin-2-yl)methanesulfonamide] |
| 148 | CC(C)C[C@H](CO)Nc1nc(C[C@@H](C)c2cc(Cl)ccc2F)nc(NS(C)(=O)=O)n1 (single isomer, unassigned) [Example 30, N-(4-((R*)-2-(5-Chloro-2-fluorophenyl)propyl)-6-(((R)-1-hydroxy-4-methylpentan-2-yl)amino)-1,3,5-triazin-2-yl)methanesulfonamide] |
| 1550 | Cc1ccc(F)c(C(C)Cc2nc(N[C@@H](CO)CC(C)C)nc(NS(C)(=O)=O)n2)n1 (stereo partly drawn) [Example 155, N-(4-(2-(3-Fluoro-6-methylpyridin-2-yl)propyl)-6-(((R)-1-hydroxy-4-methylpentan-2-yl)amino)-1,3,5-triazin-2-yl)methanesulfonamide] |
| 321 | CC(C)C[C@H](CO)Nc1nc(CC(C)c2cccc(Cl)c2O)nc(NS(C)(=O)=O)n1 (stereo partly drawn) [Example 137, N-(4-(2-(3-Chloro-2-hydroxyphenyl)propyl)-6-(((R)-1-hydroxy-4-methylpentan-2-yl)amino)-1,3,5-triazin-2-yl)methanesulfonamide] |
| 4350 | CC(C)C[C@H](CO)Nc1nc(CC(C)c2cccc(-c3ccccc3)c2)nc(NS(C)(=O)=O)n1 (some centres unmarked) [Example 157] |
| 335 | CCOc1ccc(C(C)Cc2nc(N[C@@H](CO)CC(C)C)nc(NS(C)(=O)=O)n2)cc1F (some centres unmarked) [Example 119] |
| 52 | CC(C)C[C@H](CO)Nc1nc(C[C@@H](C)c2ccc(Cl)c(F)c2F)nc(NS(C)(=O)=O)n1 (single isomer, unassigned) [Example 34, N-(4-((R*)-2-(4-Chloro-2,3-difluorophenyl)propyl)-6-(((R)-1-hydroxy-4-methylpentan-2-yl)amino)-1,3,5-triazin-2-yl)methanesulfonamide] |

From patent publication US20240199558A1, “2,4,6-TRISUBSTITUTED 1,3,5-TRIAZINES AS MODULATORS OF CX3CR1” (ASTRAZENECA AB, priority 2022, published 2024)
